According to patent publication US12098119B2, “Compound used as SIRT6 small-molecule allosteric activator and pharmaceutical composition thereof” (Nutshell BioTech (Shanghai) Co., Ltd., priority 2017, dated 2024):

Experiments:
Format in all cases: cell-based
[1] = tested on: H3K9Ac and H3K56Ac in HT29 cells; test: Western blot of SIRT6 deacetylation substrates in HT29 cells
Excerpt: (§1) A Western Blot experimental method is used to detect the effect of SIRT6 small molecule allosteric activator as active ingredients in Table 1 and Table 2 for SIRT6 deacetylated active substrates H3K9 AC and H3K56 AC in cell cells.
(§2) HEK-293 T cells, Bel7405 cells, PLC/PFR/5 cells, Bel 7402 cells, HCT116 cells, HT29 cells, SW 480 cells, and HCT116 cells are test objects.
(§3) Step 1: the compound mother liquor (solvent is DMSO) listed in Table 1 and Table 2, the gradient concentration comprising 0.5 μmol/L, 1 μmol/L, 5 μmol/L, 10 μmol/L, 25 μmol/L and 50 μmol/L;
(§4) Step 3: the cell state was good after 24 hours, the fresh culture solution (2 mL) was replaced, and the mother liquor configured above is added to the cell culture solution of the experimental group according to the ratio of 1:1000; the same volume of DMSO (2 ul) is added to the cell culture solution of the control group;
(§5) Step 4: continue to culture for a certain time (12 hours, 24 hours, 48 hours or 60 hours).
(§6) 1) for each group of cells at the end of culture, the culture medium in each well is discarded and washed with 1*PBS once;
(§7) 2) add 150 μl SDS lysate containing bromophenol blue into each well, mix well and transfer to 1.5 ml EP tube respectively;
(§8) 3) store at 95° C. for 5 min, then on ice for 5 min, repeat three times;
(§9) 4) the supernatant is centrifuged at 12000×g for 5 min for Western blot detection.

[2] = tested on: H3K9Ac and H3K56Ac in SW480 cells; test: Western blot of SIRT6 deacetylation substrates in SW480 cells
Excerpt: as §1, §2, §3, §4, §5, §6, §7, §8, §9

[3] = tested on: H3K9Ac and H3K56Ac in HCT116 cells; test: Western blot of SIRT6 deacetylation substrates in HCT116 cells
Excerpt: as §1, §2, §3, §4, §5, §6, §7, §8, §9

Q: For `C[C@@H]1COCCN1C(C)(C)C` [SOL-011], which “H3K9Ac and H3K56Ac (Western blot)” value ([1]; 10 μmol/L, 24 hours and 48 hours, FIG. 43) is on record?
A: The value was “down regulated H3K9Ac and H3k56ac”.

Q: What about the “H3K9Ac and H3K56Ac (Western blot)” value ([1]; different concentrations, 48 hours, FIG. 46) of the same compound?
A: The value was “down regulated H3K9Ac and H3k56ac”.

Q: What about the “H3K9Ac and H3K56Ac (Western blot)” value ([2]; 10 μmol/L, 24 hours and 48 hours, FIG. 44) of the same compound?
A: Its value is “can down regulate H3K9Ac and H3k56ac”.

Q: What about the “H3K9Ac and H3K56Ac (Western blot)” value ([2]; different concentrations, 48 hours, FIG. 47) of the same compound?
A: Its value is “down regulated H3K9Ac and H3k56ac”.

Q: What about the “H3K9Ac and H3K56Ac (Western blot)” value ([3]; CT116 cells, different concentrations, 48 hours, FIG. 45) of the same compound?
A: Its value is “down regulated H3K9Ac and h3k56ac”.

Q: What about the “H3K9Ac and H3K56Ac (Western blot)” value ([3]; HCT116 cells, 10 μmol/L, 24 hours and 48 hours, FIG. 42) of the same compound?
A: The value was “down regulated H3K9Ac and H3k56ac”.
